Laboratory results published in EPA's ToxValDB 9.5 (doi:10.2903/j.efsa.2008.126r).
In brackets after ≈: the same amount, converted by molar mass.

Assays:
[1] = system: Anas platyrhynchos; details: for LD50: oral, mortality
[2] = system: Apis mellifera; details: acute; duration: 48 hours; dermal; mortality
[3] = system: Canidae; details: subchronic; duration: 90 days; oral; Dog Other; histopathology: nonneoplastic
[4] = system: Colinus virginianus; details: for LD50: acute, oral, mortality
[5] = system: Daphnia magna; details: chronic/long-term; duration: 21 days; reproduction
[6] = system: Pimephales promelas
[7] = system: Rattus norvegicus
[8] = system: Tagia sp.

With `CC(C)Oc1cccc(NC(=O)c2ccccc2C(F)(F)F)c1` [Flutolanil] the LD50 ([1]; acute, unspecified) was > 2000 mg/kg-day, the NOEL ([1]; reproductive) was 267 mg/kg-day and the LD50 ([1]; short-term, feed) was 1250 mg/kg-day. For the same compound, the LD50 [2] was > 200 µg/piece, the NOAEL [3] was 80 mg/kg-day and the LD50 ([4]; diet) was > 961 mg/kg-day. For the same compound, the LD50 [4] was > 2000 mg/kg-day, the NOEL ([4]; reproduction developmental) was 247 mg/kg-day and the NOEC [5] was 0.53 mg/L. For the same compound, the LC50 ([6]; acute, duration: 96 hours, mortality) was 4.8 µg/mL (≈ 14.8 µM), the NOEC ([6]; chronic/long-term, duration: 30 days, growth) was 0.233 mg/L and the LD50 ([7]; acute, oral, mortality) was > 10000 mg/kg-day. It also gave an NOAEL ([7]; chronic, duration: 2 years, F, hematological) of 8.7 mg/kg-day, an NOAEL ([7]; chronic, duration: 2 years, M, histopathology: nonneoplastic) of 8.7 mg/kg-day and an NOAEL ([7]; reproduction developmental, organ weight) of 157 mg/kg-day. The LC50 ([8]; acute, duration: 14 days, mortality) was > 1000 mg/kg and the NOEC ([8]; chronic/long-term, duration: 56 days) was 12.9 mg/kg.
